# Measured values reported in patent US8778912B2, “Composition of dialysis liquid comprising crystallisation inhibitor substances” (Universitat de les Illes Balears, priority 2008, dated 2014).
# What was measured:
# [1] = Dialysis of artificial plasma with 1.5 mM phytate against dialysing liquid with the same concentration of phytate; format: in vitro ADME; details: 20 hours dialysis; 1.5 mM phytate in both plasma and dialysing liquid, pH 7.4
# Protocol: (§1) An artificial plasma was prepared with 1.5 mM of phytate, regulating the ionic strength with 0.15 M NaCl. 25 ml of this solution were dialysed for 20 hours against a 1-l volume of a 0.15 M NaCl solution with the same concentration of phytate as the plasma. The pH of both solutions was adjusted to 7.4 using bicarbonate buffer. 5-ml aliquots of the dialysing liquid were collected at times 0, 1, 3, 6 and 20 hours, and the quantity of phytate was determined in each of them. Moreover, the concentration of phytate in the artificial plasma was determined at times 0 and 20 hours.
# [2] = Dialysis of artificial plasma with 300 μM phytate against dialysing liquid with 5 times greater phytate concentration; format: in vitro ADME
# Protocol: as §1, with “with 300 μM” for “with 1.5 mM”, “with a” for “with the same”, “phytate 5 times greater than that of” for “phytate as”
# [3] = Dialysis of artificial plasma with 1.5 mM phytate against dialysing liquid without phytate; format: in vitro ADME; details: after a 20-hour period, pH 7.4
# Protocol: An artificial plasma (liquid with a composition similar to that of plasma) was prepared with 1.5 mM phytate, regulating the ionic strength with 0.15 M NaCl. 25 ml of this solution were dialysed for 20 hours against a 1-l volume of a 0.15 M NaCl solution without phytate (dialysing liquid model). The pH of both solutions was adjusted to 7.4 using bicarbonate buffer. 5-ml aliquots of the dialysing liquid were collected at times 0, 1, 3, 6 and 20 hours, and the quantity of phytate in each of them was determined. Moreover, the concentration of phytate in the artificial plasma was determined at times 0 and 20 hours.
# [4] = Intravenous administration to rats on a diet without phytate; urinary and plasma phytate; format: in vivo, male Wistar rats; details: treated group, 3 intravenous doses of 0.61 mmol/kg (400 mg/kg) 12 hours apart
# Protocol: 6 male Wistar rats approximately 250 g in weight were acclimated from 7 dias in the animal house (T=[…] and humidity=60±5%) with 12:12-hour light-darkness cycles. The rats were housed in Plexiglas cages, with one animal per cage, and fed with food and drink ad libitum.
# Following the acclimation period, the animals were randomly divided into two groups with 3 rats each, a control group (with a diet without phytate, thereby simulating a post-dialysis physiological condition) and a treated group, which received 3 intravenous doses of 0.61 mmol/kg (400 mg/kg) separated by 12-hour periods. Following the last administration, 24-hour urine samples were collected in order to determine the phytate and, subsequently, the animals were anaesthesised and blood samples were collected.
# The procedures used in this experiment were performed in accordance with Directive 86/609/EEC regarding the protection of animals used for experimental and scientific purposes.
# [5] = Dialysis of artificial plasma with 5 mM etidronate against dialysing liquid without etidronate; format: in vitro ADME; details: after a 20-hour period, pH 7.4
# Protocol: (§2) An artificial plasma was prepared with 5 mM of etidronate, regulating the ionic strength with 0.15 M NaCl. 25 ml of this solution were dialysed for 20 hours against a 1-l volume of a 0.15 M NaCl solution without etidronate (dialysing liquid model). The pH of both solutions was adjusted to 7.4 using bicarbonate buffer.
# (§3) 5-ml aliquots of the dialysing liquid were collected at times 0, 1, 3, 6 and 20 hours, and the quantity of etidronate was determined in each of them. Moreover, the concentration of etidronate in the artificial plasma was determined at times 0 and 20 hours.
# [6] = Dialysis of artificial plasma with 1 mM etidronate against dialysing liquid with 5 times greater etidronate concentration; format: in vitro ADME
# Protocol: as §2, with “with 1” for “with 5”, “solution with a concentration of” for “solution without”, “etidronate 5 times greater than that of the plasma.” for “etidronate (dialysing liquid model).”
# as §3
# [7] = Dialysis of artificial plasma with 5 mM etidronate against dialysing liquid with the same concentration of etidronate; format: in vitro ADME; details: 20 hours dialysis; 5 mM etidronate in both plasma and dialysing liquid, pH 7.4
# Protocol: as §2, with “with the same concentration of” for “without”, “as the plasma.” for “(dialysing liquid model).”
# as §3
Compound,variation in the concentration of phytate in the plasma and the dialysing liquid [1],"change of plasma concentration of phytate (in words) ([2]; 20-hour period, dialysis liquid with phytate concentration greater than that of the plasma)","phytate from the dialysis liquid that enters into the artificial plasma ([2]; 20 hours dialysis, plasma 300 μM phytate, dialysis liquid 5 times greater, pH 7.4)","increase of the concentration of phytate in the artificial plasma ([2]; 20 hours dialysis, plasma 300 μM phytate, dialysis liquid 5 times greater, from ratio of initial volumes and concentrations)","quantity of phytate in the dialysis solution, as share of the initial quantity in the artificial plasma [3]","concentration at 24 h ([4]; male, Wistar, rat, plasma, blood 24 hours after last administration, read-out: plasma level of phytate)",urinary excretion of phytate ([4]; 24-hour urine after last administration),"quantity of etidronate in the dialysis solution, as share of the initial quantity in the artificial plasma [5]","change of plasma concentration of etidronate (in words) ([6]; 20-hour period, dialysis liquid with etidronate concentration greater than that of the plasma)","etidronate from the dialysis liquid that enters into the artificial plasma ([6]; 20 hours dialysis, plasma 1 mM etidronate, dialysis liquid 5 times greater, pH 7.4)","increase of the concentration of etidronate in the artificial plasma ([6]; 20 hours dialysis, plasma 1 mM etidronate, dialysis liquid 5 times greater, from ratio of initial volumes and concentrations)",variation in the concentration of etidronate in the plasma and the dialysing liquid [7]
"O=P(O)(O)O[C@H]1[C@H](OP(=O)(O)O)[C@@H](OP(=O)(O)O)[C@H](OP(=O)(O)O)[C@@H](OP(=O)(O)O)[C@H]1OP(=O)(O)O [phytate, myo-inositol hexaphosphate]",no variations,increase the plasma concentration,up to 0.75%,140%,40%,1000 ng/mL,72 ± 10 µg,–,–,–,–,–
"CC(O)(P(=O)(O)O)P(=O)(O)O [etidronate, etidronic acid]",–,–,–,–,–,–,–,95.6%,increase the plasma concentration,up to 1.65%,330%,no variations
